From patent US8440836B2, “Heterocyclic alkanol derivatives” (Bayer Intellectual Property GmbH, priority 2010, dated 2013)

Legend:
[1] = tested on: Leptosphaeria maculans; assay: Leptosphaeria test (oilseed rape)/seed treatment; format: in vivo; conditions: rapeseed treatment, dose 50 g/dt, greenhouse 10° C. 14 days and 18° C. 7 days
Method: The test was conducted under greenhouse conditions. […] treated with an inventive active compound or a combination of inventive active compounds were sown in 6×6 cm vessels, into a mixture of steamed field soil and to sand (1:1). The test compound(s) were dissolved in N-methyl-2-pyrrolidone and diluted to the desired concentration with water. Perlite was inoculated with spores of Leptosphaeria maculans. The infected perlite was distributed between the treated […]. The seeds were covered with a top layer of steamed field soil and sand (1:1) and incubated in a greenhouse at 10° C. for 14 days and at 18° C. for 7 days.

[2] = tested on: Puccinia triticina; assay: Puccinia triticina test (wheat)/protective; format: in vivo; conditions: wheat plants, protective spray, 500 ppm active ingredient, evaluation 8 days after inoculation
Description: Evaluation follows 8 days after the inoculation.

[3] = tested on: Rhizoctonia solani; assay: Rhizoctonia test (cotton)/seed treatment; format: in vivo; conditions: cottonseed treatment, dose 50 g/dt, greenhouse 20° C. 7 days
Method: The test was conducted under greenhouse conditions. Cottonseeds treated with an inventive active compound or a combination of inventive active compounds were sown in 6×6 cm vessels, into a mixture of steamed field soil and sand (1:1). The test compound(s) were dissolved in N-methyl-2-pyrrolidone and diluted to the desired concentration with water. Perlite was inoculated with spores of Rhizoctonia solani. The infected perlite was distributed between the treated cottonseeds. The seeds were covered with a top layer of clay granules and incubated in a greenhouse at 20° C. for 7 days.

[4] = tested on: Leptosphaeria nodorum; assay: Leptosphaeria nodorum test (wheat)/protective; format: in vivo; conditions: wheat plants, protective spray, 500 ppm active ingredient, evaluation 8 days after inoculation
[5] = tested on: Venturia inaequalis; assay: Venturia test (apple)/protective; conditions: apple plants, protective spray, 100 ppm active ingredient, evaluation 10 days after inoculation
Method: • Solvent: 24.5 parts by weight of acetone • 24.5 parts by weight of dimethylacetamide • Emulsifier: 1 part by weight of alkylaryl polyglycol ether
To produce an appropriate active ingredient formulation, 1 part by weight of active ingredient is mixed with the specified amounts of solvent and emulsifier, and the concentrate is diluted with water to the desired concentration. To test for protective activity, young plants are sprayed with the active ingredient formulation at the stated application rate. After the spray coating has dried on, the plants are inoculated with an aqueous conidia suspension of the apple scab pathogen Venturia inaequalis and then remain in an incubation cabin at about 20° C. and 100% relative air humidity for 1 day. The plants are then placed in a greenhouse at about 21° C. and a relative air humidity of about 90%. Evaluation follows 10 days after the inoculation.

[6] = tested on: Septoria tritici; assay: Septoria tritici test (wheat)/protective; format: in vivo; conditions: wheat plants, protective spray, 500 ppm active ingredient, evaluation 21 days after inoculation
[7] = tested on: Fusarium culmorum; assay: Fusarium test (wheat)/seed treatment; format: in vivo; conditions: dose 50 g/dt, greenhouse 20° C. 14 days
Method: (§1) The test was conducted under greenhouse conditions. Wheat seeds treated with an inventive active compound or a combination of inventive active compounds were sown in 6×6 cm vessels, into a mixture of steamed field soil and sand (1:1). The test compound(s) were dissolved in N-methyl-2-pyrrolidone and diluted to the desired concentration with water. Wheat kernels were inoculated with spores of Fusarium culmorum. The infected and ground kernels were distributed between the treated wheat seeds. The seeds were covered with a top layer of clay granules and incubated in a greenhouse at 20° C. for 14 days. Evaluation was effected by counting the plants which emerged.

[8] = tested on: Blumeria graminis f.sp. hordei; assay: Blumeria graminis test (barley)/protective; format: in vivo; conditions: barley plants, protective spray, 500 ppm active ingredient, evaluation 7 days after inoculation
[9] = tested on: Sphaerotheca fuliginea; assay: Sphaerotheca test (cucumber)/protective; conditions: cucumber plants, protective spray, 500 ppm active ingredient, evaluation 7 days after inoculation
Method: • Solvent: 49 parts by weight of N,N-dimethylformamide • Emulsifier: 1 part by weight of alkylaryl polyglycol ether
To produce an appropriate active ingredient formulation, 1 part by weight of active ingredient is mixed with the specified amounts of solvent and emulsifier, and the concentrate is diluted with water to the desired concentration. To test for protective activity, young cucumber plants are sprayed with the formulation of active ingredient at the stated application rate. 1 day after the treatment, the plants are inoculated with a spore suspension of Sphaerotheca fuliginea. The plants are then placed in a greenhouse at 70% relative air humidity and a temperature of 23° C. Evaluation follows 7 days after the inoculation.

[10] = logP by HPLC (EEC Directive 79/831 Annex V.A8); format: physicochemical; conditions: HPLC reversed-phase C18, method [a]: LC-MS, pH 2.7, 0.1% aqueous formic acid / acetonitrile, gradient 10% to 95% acetonitrile; for chromatographic logP: reversed-phase C18 HPLC column
[11] = tested on: Microdochium nivale; assay: Microdochium test (wheat)/seed treatment; format: in vivo; conditions: dose 50 g/dt, greenhouse 10° C. 21 days
Method: as §1, with “Microdochium nivale.” for “Fusarium culmorum.”, “steamed field soil and sand (1:1)” for “clay granules”, “10°” for “20°”, “21” for “14”, “days.” for “days. Evaluation was effected by counting the plants which emerged.”

Structure (SMILES) | efficiency (emerged plants) [1] [%] | efficacy [2] [%] | efficiency (emerged and diseased plants) [3] [%] | efficacy [4] [%] | efficacy [5] [%] | efficacy [6] [%] | efficiency (emerged plants) [7] [%] | efficacy [8] [%] | efficacy [9] [%] | chromatographic logP [10] | logP [10] | efficiency (emerged plants) [11] [%]
CC(C)(C)C(O)(COc1ccc(I)cc1)c1cncs1 (stereo not shown) [Compound 1] | 70 | 100 | 70 | 100 | 99 | 100 | 100 | 100 | 100 | – | – | –
CC(C)(C)C(O)(COc1ccc(Br)cc1)c1cncs1 (stereo not shown) [Compound 2] | – | 100 | – | 100 | 93 | 100 | – | 100 | 99 | – | – | –
CO/N=C/c1ccc(OCC(O)(c2cncs2)C(C)(C)C)cc1 (stereo not shown) [Compound 3] | – | 89 | – | 92 | 100 | 83 | – | 100 | – | – | – | –
CC(CF)(CF)C(O)(COc1ccc(I)cc1)c1cncs1 (stereo not shown) [Compound 4] | – | 100 | – | 100 | – | 100 | – | 100 | 100 | 3.16 | – | –
CC(CF)(CF)C(O)(COc1ccc(Br)cc1)c1cncs1 (stereo not shown) [Compound 8] | – | – | – | – | – | – | – | 89 | 94 | – | logP 3.02^[a]; [M + H]^+ = 392/394. | –
OC(Cc1ccccc1Cl)(c1cncs1)C1(F)CC1 (stereo not shown) [Compound 11] | – | – | – | – | – | – | – | 78 | 70 | – | logP 2.64^[a]; [M + H]^+ = 298 | –
CC(C)(C)C(O)(COc1ccc(Cl)cc1)c1cnc(S)s1 (stereo not shown) [Compound 12] | – | – | – | 86 | – | – | – | 89 | 98 | 3.06 | – | –
CC1(C(O)(COc2ccc(Cl)cc2)c2cncs2)CC1 (stereo not shown) [Compound 14] | – | – | – | – | 98 | – | – | – | 95 | – | logP 3.11^[a]; [M + H]^+ = 310; 312 | –
CC(C)(C)C(O)(COc1ccc(OC(F)(F)F)cc1)c1cncs1 (stereo not shown) [Compound 20] | – | 100 | – | 100 | – | 100 | – | 100 | 88 | – | – | –
CC1(C(O)(COc2ccc(I)cc2)c2cncs2)CCCCC1 (stereo not shown) [Compound 25] | – | 78 | – | – | – | 86 | – | – | 100 | – | logP 4.53^[a]; [M + H]^+ = 444 | –
CC1(C(O)(COc2ccc(Br)cc2)c2cncs2)CCCCC1 (stereo not shown) [Compound 33] | – | 83 | – | – | 99 | – | – | 89 | 100 | – | logP 4.37^[a]; [M + H]^+ = 396/398 | –
OC(Cc1cnc(I)s1)(Cc1ccccc1Cl)C1(Cl)CC1 (stereo not shown) [Compound 39] | – | – | – | – | – | – | – | 90 | 100 | – | – | –
CC(C)(C)C(O)(COc1ccc(SC(F)(F)F)cc1)c1cncs1 (stereo not shown) [Compound 41] | – | 100 | – | 100 | 95 | 71 | – | 100 | 95 | – | logP 3.98^[a]; [M + H]^+ = 378 | –
CC(C)(C)C(O)(COc1ccc(F)cc1)c1cncs1 (stereo not shown) [Compound 42] | – | 89 | – | – | – | – | – | 100 | 94 | – | logP 2.91^[a]; [M + H]^+ = 296 | –
CC(C)(/C=C/Cl)C(O)(COc1ccc(I)cc1)c1cncs1 (stereo not shown) [Compound 53] | – | 100 | – | 83 | – | 100 | – | 94 | 94 | – | logP 3.92^[a]; [M + H]^+ = 450 | –
OC(Cc1cncs1)(Cc1ccccc1Cl)C1(Cl)CC1 (stereo not shown) [Compound 57] | 80 | – | 80 | 88 | 100 | 70 | 89 | 100 | 100 | – | – | 78
OC(Cc1cncs1)(Cc1ccccc1F)C1(Cl)CC1 (stereo not shown) [Compound 60] | 80 | 95 | 90 | 100 | 100 | 94 | 89 | 100 | 100 | – | logP 3.06^[a]; [M + H]^+ = 312 | 100
CC(C)(C)C(O)(CCc1ccc(Br)cc1)c1cncs1 (stereo not shown) [Compound 72] | – | – | – | – | – | – | – | – | 100 | – | logP 3.69^[a]; [M + H]^+ = 354, 356 | –
COc1ccc(CCC(O)(c2cncs2)C(C)(C)C)cc1 (stereo not shown) [Compound 73] | – | – | – | – | – | – | – | – | 78 | – | logP 2.94^[a]; [M + H]^+ = 306 | –
CC(C)(C)C(O)(CCc1ccc(OC(F)(F)F)cc1)c1cncs1 (stereo not shown) [Compound 74] | – | – | – | – | – | – | – | – | 100 | – | logP 3.93^[a]; [M + H]^+ = 360 | –
CC(C)(C)C(O)(COc1ccc(C2CC2)cc1)c1cncs1 (stereo not shown) [Compound 79] | – | – | – | 86 | 100 | 88 | – | 100 | 93 | – | logP 3.73^[a]; [M + H]^+ = 318 | –
CC(C)(C)C(O)(COc1ccc(C2CCCC2)cc1)c1cncs1 (stereo not shown) [Compound 80] | – | – | – | – | – | – | – | – | 94 | – | logP 4.78^[a]; [M + H]^+ = 346 | –
